Read-outs that look alike come from different tables or passages of the source.
Experiments:
[1] = test system: mouse tumor organoids (MTOs), established CRC liver metastases; assay: Treatment of established CRC liver metastases, alone or with anti-PD1; format: in vivo, mice; conditions: for Cure of established liver metastases as monotherapy: 0.1× doses: 80, 82 and 71 mg/kg BID for galunisertib, vactosertib and HYL001, anti-PD1 IP alone
Experimental: Encouraged by the increased potency observed in vitro and in the inhibition of liver metastatic initiation in vivo, we evaluated the ability of a relatively low HYL001 dose to help overcome established liver metastases when combined with immune checkpoint inhibition. In this experimental set up, a low number of MTO cells (25K) was injected in the portal vein (leaving the spleen unaltered), and liver metastases were allowed to develop and grow for 15 days before treatment with TGFβ inhibitors was initiated. This was done in combination with 3–4 intraperitoneal (IP) injections of immune-checkpoint inhibition therapy (anti-PD1 or isotype control antibody), spaced 2–3 days (Figure 6A,B).
Figure 6 HYL001 efficacy in dual immunotherapy against established CRC liver metastases. (A) Overview of experimental timing: dual treatment between days 14 and 28 after MTO injection (TGFβ inhibitor doses were all 0.1 ×); follow-up until humane end point. Below: numbers of countable liver lesions after sacrifice. Statistical comparisons to the vehicle + IgG2a control (above) or the vehicle+αPD1 condition (below) by two-tailed Mann–Whitney U test; ns: P ≥ 0.05; *P < 0.05; **P < 0.01; ***P < 0.001; ****P < 0.0001. (B) Kaplan–Meier curves indicate the survival (until humane end point) of mice under each treatment; P values were computed by the Mantel–Cox test (Log-rank).
For all tumor cell injections, C57BL/6J (or athymic BALB/C nu/nu) mice were purchased from Janvier at 6 weeks of age and injected at 7–8 weeks. Sex was matched with the origin of the tumor organoids, i.e., males for this study. Intrasplenic or portal vein injections, respectively, with 31G needles on 1 mL insulin syringes or 33G needles on a 50/100 μL Hamilton syringe, were used for liver colonization by the introduction of dissociated organoids (single cells) into the portal circulation. MTOs were cultured in standard six-well plates for 4 days and trypsinized as described before.[5] The resulting single cell suspension in HBSS (Lonza) was filtered through 100 and 40 μm mesh (to remove clumps of cells and aggregated debris). Intrasplenic injections were performed, as previously described,[5],[8],[9] using 2 × 10^5 cells in 70 μL HBSS. For portal vein injections, […] in 25 μL HBSS were injected directly into the portal vein.[5] Mice were euthanized at 3–5 weeks or at the humane end point (advanced metastasis-associated morbidity causing or threatening to cause severe suffering) to obtain survival-type data. Visible liver metastases were counted, and data were analyzed using GraphPad Prism software (v.7.03).
Gavage treatments were performed by technicians from the animal facility, not involved in this study (blinded). For checkpoint immunotherapy or dual treatments, we used rat anti-PD-1 (RMP1–14; Leinco P372) or rat IgG2a (Leinco I-1177) isotype-control antibodies.

TGFβ pathway = assay: Cellular TGFβ reporter (12xCAGA luciferase) assay in HEK293T cells; format: cell-based; conditions: for IC50: Homo sapiens, HEK-293T, 5 ng/mL recombinant TGFβ, 12xCAGA luciferase reporter, read-out: cellular inhibition TGFβ pathway IC50
Experimental: We next tested the three inhibitors in a cellular assay, using a luciferase-based reporter assay[20] in HEK293T cells in the presence or absence of inhibitors (Table 1). Upon activation of the endogenous receptors by 5 ng/mL recombinant TGFβ, phosphorylation of the TGFBR1 triggers phosphorylation of the intracellular mediators SMAD2/3, and subsequent nuclear translocation with SMAD4. The SMAD2/3-SMAD4 complex binds to the TGFβ response element (12xCAGA) allowing the transcription of the Firefly luciferase reporter.
HEK293T cells were purchased from the ATCC and cultured in DMEM supplemented with L-glutamine and 10% fetal bovine serum (Life Technologies) at 37 °C and 5% CO2. The cells were seeded in 24-well plates and transfected with plasmids encoding 12xCAGA-Firefly_Luc and Tk-Renilla_Luc (75 and 10 ng per well, respectively) using polyethylenimine (Polysciences) as the transfection reagent. After 7 h, the medium was replaced with starvation medium (DMEM + 0.05% FBS). […] Bioluminescence was measured in a Berthold Lumat LB6507 luminometer (18 μL of reagents, 10 s measurements). Results were normalized to those of the Renilla transfection control. Inhibition–concentration curves were analyzed in Prism Graphpad Prism (v10.1.1) with a least-squares regression nonlinear fit.

[2] = test system: panel of 97 wild-type and disease-relevant mutant kinases; format: binding; conditions: for Additional kinases showing >85% competitive binding: besides ALK5 and ALK4/ACVR1B
From the text: We also assessed the selectivity of these three inhibitors toward a panel of 97 wild-type and disease-relevant mutant kinases, distributed throughout various kinase families.
Figure 2 Selectivity of HYL001. […] TK: tyrosine kinases; TKL: tyrosine kinase-like kinases; STE: serine/threonine kinases; CK1: casein kinase 1 family; AGC: serine/threonine kinases, regulated by secondary messengers such as cyclic AMP (PKA) or lipids (PKC); CAMK: Ca^2+/calmodulin-dependent protein kinase family; and CMGC: primarily proline-directed serine/threonine kinases (CDKs, GSKs, MAP kinases, and CDK-like kinases).
5. Methods for In vitro characterizations of HYL001
Kinase affinity and selectivity
The affinity of the ALK5 inhibitor HYL001 was determined for the ALK kinase family using the […]
DNA-tagged kinases and immobilized assay ligands, using quantitative PCR —run by Eurofins/DiscoveryX (Birmingham AL, USA). Dissociation constants were calculated by measuring the amount of kinase captured on the solid support as a function of the test compound concentration. Kd values were obtained by an 11 -point […]
(BMPR1A), ALK4 (ACVR1B), ALK6 (BMPR1B), ACVR2B and TGFβ R2. In addition, this technology was […]
The strength of competitive binding, defined as the percentage of binding inhibition of kinases to assay ligan d, was visualized using the TREEspot software (DiscoverRx Corporation) and a selectivity score was calculated (the fraction of non -mutated kinases tested with competitive binding inhibition above threshold percentages 65 […]

[3] = Buffer stability (hepatocyte assay control); format: physicochemical
Experimental: Similarly, buffer was added to recovery and stability samples. Next,
Samples were monitored for
parent compound using multiple reaction monitoring (MRM) mode. […]
(§1) Metabolic stability in human primary hepatocytes
This assay was performed at Sai Life Sciences Lt. (Telangana, India) with human suspension hepatocytes
(§2) All other reactions were initiated by […]

[4] = Metabolic stability in human cryopreserved hepatocytes; format: in vitro ADME
Experimental: as §1
This assay was performed at Sai Life Sciences Lt. (Telangana, India) with human suspension hepatocytes […]
as §2
analysis by LC-MS/MS, using MRM mode. […]
related to phase I and phase II metabolism, respectively.
The PARs were used for calculation of metabolic stability. The 0 min area ratio was considered as 100%. The […]
incubation volume / number of cells (in millions) x K e. To calculate into full body context, the values of 120 […]

[5] = 10 μM compound, 90 kinases tested
[6] = human, hepatocytes, 0 h, pH 7.4
[7] = human, hepatocytes, 5 min, pH 7.4
[8] = human, hepatocytes, 0.25 h, pH 7.4
[9] = human, hepatocytes, 0.5 h, pH 7.4
[10] = human, hepatocytes, pH 7.4, Disappearance T1/2

| SMILES | Cure of established liver metastases as monotherapy [1] | IC50 (TGFβ pathway) | Number of kinase interactions (>65% competitive binding inhibition) [2, 5] | Buffer Stability ([3]; 0 min, pH 7.4) | Buffer Stability ([3]; 60 min, pH 7.4) | Parent compound remaining [4, 6] | Parent compound remaining [4, 7] | Parent compound remaining [4, 8] | Parent compound remaining [4, 9] | CLint scaled ([4]; human, hepatocytes, pH 7.4) | half-life [4, 10] | Additional kinases showing >85% competitive binding [2] | other results |
| --- | --- | --- | --- | --- | --- | --- | --- | --- | --- | --- | --- | --- | --- |
| Cc1cccc(-c2nn3c(c2-c2ccnc4ccc(C(N)=O)cc24)CCC3)n1 [galunisertib] | not efficacious | 157 nM | 10 | 100% | 105% | 100% | 97% | 92% | 90% | 10.4 mL/min/kg | > 60 min |  | Parent compound remaining ([4]; human, hepatocytes, 1 h, pH 7.4): 76%; half-life ([4]; human, hepatocytes, pH 7.4, Assumed T1/2): 160 min |
| Cc1cccc(-c2nn3c(c2-c2ccnc4ccc(O)cc24)CCC3)n1 [HYL001, 4-(2-(6-Methylpyridin-2-yl)-5,6-dihydro-4H-pyrrolo[1,2-b]pyrazol-3-yl)quinolin-6-ol] | not efficacious | 72 nM | 13 | 100% | 117% | 100% | 67% | 59% | 56% | 32.1 mL/min/kg | 51.8 min | ABL-1, CSNK1G2, and p38α | Tumor burden in numbers of liver nodules ([1]; dual therapy with anti-PD1): marked overall reduction; Mice cured at the end point (number) ([1]; dual therapy with anti-PD1, 71 mg/kg BID): 8/10; Mice cured at the end point ([1]; dual therapy with anti-PD1, 71 mg/kg BID, surviving 2.5 months after injection): up to 80%; Fold higher potency compared to galunisertib in TGFβ reporter assay (TGFβ pathway): ~2 fold; Number of kinase interactions (>65% competitive binding inhibition) ([2]; 0.3 μM compound, 22 kinases tested): 1; Number of kinase interactions (>65% competitive binding inhibition) ([2]; 3 μM compound, 22 kinases tested): 5; Selectivity score S(>65_10), fraction of wildtype kinases inhibited >65% ([2]; 10 μM compound): 0.144; Selectivity score S(>90_10), fraction of wildtype kinases inhibited >90% ([2]; 10 μM compound): 0.1; Selectivity score S(>65_10), fraction of wildtype kinases inhibited >65% ([2]; 10 μM compound, listed as HYL): 0.14 |
| Cc1cccc(-c2[nH]c(CNc3ccccc3F)nc2-c2ccc3ncnn3c2)n1 [vactosertib, N -((4-([1,2,4]Triazolo[1,5-a]Pyridin-6-Yl)-5-(6-Methylpyridin-2-Yl)-1 H -Imidazole-2-Yl)Methyl)-2-Fluoroaniline] | not efficacious | 10 nM | 24 |  |  |  |  |  |  |  |  | ERBB2, FGFR2/3, KIT, MEK1/2, PDGFRA/B, SRC, and VEGFR2 | Buffer Stability ([3]; 0 min): 100%; Buffer Stability ([3]; 60 min): 84%; CLint scaled ([4]; hepatocytes (suspension, cryopreserved), pH 7.4, scaled using 120 M cells per g liver, liver weight 20 g/kg (human), read-out: Scaled in vivo Clint): 30.1 mL/min/kg; Parent compound remaining ([4]; human hepatocytes, incubation time 0 min): 100%; Parent compound remaining ([4]; human hepatocytes, incubation time 5 min): 60%; Parent compound remaining ([4]; human hepatocytes, incubation time 15 min): 59%; Parent compound remaining ([4]; human hepatocytes, incubation time 30 min): 52%; Parent compound remaining ([4]; human hepatocytes, incubation time 60 min): < 50%; Parent compound remaining ([4]; human hepatocytes, incubation time 60 min, listed as Vactosertib): 39%; half-life ([4]; human, hepatocytes (suspension, cryopreserved), pH 7.4, human hepatocytes, read-out: Disappearance T1/2): 55.3 min |

From paper PMC11729428, “New Potent Inhibitor of Transforming Growth Factor-Beta (TGFβ) Signaling that is Efficacious against Microsatellite Stable Colorectal Cancer Metastasis in Combination with Immune Checkpoint Therapy in Mice” (ACS Pharmacology & Translational Science, 2024)
